For orientation: GI50 means the concentration giving 50% growth inhibition.

SMILES strings stand for the structures. “Also recorded” adds a separate entry of the source.

The conditions of data set [1]: pro-drug; cited from earlier work.
For data set [2] the following is noted: human plasma; cited from earlier work.
Data set [3] deals with human acute myelogenous leukemia (HL60) nude mice xenografts. The following applies: cited from earlier work.
Data set [4] concerns human colon cancer (HCT116) nude rat xenograft. The settings on record: HCT116 nude rat xenograft model; cited from earlier work.
The test system of a further data set is S462TY flank xenografts. Description: S462TY nude mouse flank xenograft, single HSV1716 dose plus MLN8237 20 mg/kg twice daily. The format is in vivo, nude mice. The protocol: Single intratumoral (ITu) injections of 1.0×10^7 pfu HSV1716 or PBS or single intravenous (IV) injections of 9.0×10^7 pfu HSV1716 or PBS were administered on day 7 and tumor growth and survival were monitored.

Another data set has as its system S462TY xenografts. Description: S462TY nude mouse xenograft, multiple cycles of lower dose MLN8237 plus HSV1716. The data set is classed as in vivo, nude mice. The settings on record: multiple weekly ITu HSV1716 1×10^7 pfu and/or MLN8237 10 mg/kg once daily 5-day cycles. An excerpt: The schema used for each of the 4 groups is shown in FIG. 8 and tumor growth and survival were monitored throughout the experiment.

The subject of data set [5] is SK-N-AS flank xenografts (neuroblastoma). Description: SK-N-AS nude mouse flank xenograft model. The format is in vivo, nude mice. The text has this:
SK-N-AS cells were derived from a bone marrow metastasis […] of a child with poorly differentiated embryonal neuroblastoma and the cell line readily formed flank xenografts in nude mice. […] The schema used for each of the 4 groups is shown in FIG. 13 and tumor growth and survival were monitored throughout the experiment.

For data set [6], the system named is HSV1716 titre in S462TY xenografts. The data set can be described thus: HSV1716 titration of S462TY xenograft tumours after ITu injection. The data set is classed as in vivo, mice. The text has this: MLN8237-treated or control, untreated mice with S462TY xenografts received ITu HSV1716 and tumours, removed at 2 and 48 hrs after virus administration, were titrated (FIG. 18).

Data set [7] concerns HSV1716 uptake by S462TY cells. The data set can be described thus: Quantitative PCR for HSV1716 genomes in S462TY cells in vitro. The data set is classed as cell-based. The settings on record: 30 min post infection, acid wash. The protocol:
S462TY cells were infected with HSV1716 and an acid wash after 30 mins was used to remove residual free virus which had not penetrated intracellularly.

The subject of data set [8] is multiple tumor cell lines. The settings on record: values as low as; read-out: GI50, growth of multiple tumor cell lines; cited from earlier work.
Data set [9] has as its system receptors and ion channels. The following applies: cited from earlier work.
The conditions of data set [10]: cited from earlier work.
Data set [11] deals with senescence-associated beta-galactosidase in S462TY xenografts. The data set can be described thus: Senescence detection with X-gal (SA-β-gal) in S462TY xenografts.
The mark [12] stands for this setting: S462TY flank xenografts, best response for at least 21 days, last response day 53, route as in label.
[13] abbreviates: S462TY flank xenografts, day 53, route as in label.

On to `CCN(CCCOc1ccc2c(Nc3cc(CC(=O)Nc4cccc(F)c4)n[nH]3)ncnc2c1)CCOP(=O)(O)O` [AZD1152], for which, in [1], the solubility result was “highly soluble”. Besides, the “cleavage of pro-drug to active drug substance AZD1152 hydroxy-QPA” value in data set [2] is “cleaved completely”.

On to `Cc1cc(Nc2cc(N3CCN(C)CC3)nc(Sc3ccc(NC(=O)C4CC4)cc3)n2)n[nH]1` [MK0457], for which the “reduction in tumor volume when compared with controls” value in data set [3] was 98%. For the same molecule, in data set [4], the “tumor regression, rats treated” value is reported as “four of the seven rats”.

Regarding `COc1cc(Nc2ncc3c(n2)-c2ccc(Cl)cc2C(c2c(F)cccc2OC)=NC3)ccc1C(=O)O` [MLN8237], the “tumor growth of S462TY xenografts (FIG. 5a)” value in the data set with S462TY flank xenografts (HSV1716 single ITu 1.0×10^7 pfu day 7 and/or MLN8237 20 mg/kg oral twice daily, 42 days) was “initially effective at preventing growth of the xenografts”. Besides, the “survival compared to vehicle/PBS-treated controls (FIG. 6)” value with S462TY flank xenografts (HSV1716 single ITu 1×10^7 pfu day 7 and/or MLN8237 20 mg/kg twice daily) was “improved survival”. Besides, in the data set on S462TY flank xenografts (setting [12]), the “PR-->PD, evaluable mice” value came to 0 and the “SD-->PD, evaluable mice” value was 6. For the same molecule, the “PD (Progressive Disease), evaluable mice” value in the data set with S462TY flank xenografts (S462TY flank xenografts, day 53 (11 days after last treatment), MLN8237 20 mg/kg oral twice daily 5 d/week 42 days, HSV1716 single ITu 1.0×10^7 or IV 9.0×10^7 pfu day 7, route as in label) is on record as 4. Further, in the data set on S462TY flank xenografts (setting [13]), the “CR (Complete Response), evaluable mice” value is 0 and the “PR (Partial Response), evaluable mice” value is on record as 0. Besides, the “day by which most of the mice had been sacrificed” value with S462TY flank xenografts (single agents: IV HSV1716, MLN8237 twice daily doses) is ≤ 60 days. In addition, the “tumor growth of S462TY xenografts (FIG. 9, 10)” value in the data set with S462TY xenografts is reported as “reduced the growth”. Moreover, in data set [5] (day 21), the “tumor growth, comparison between the four groups on day 21 (FIG. 16)” value is “highly significant reduction in tumor growth”. In data set [5] (day 25, single agents), the “mice still alive on day 25” value is given as “approximately 50%”. The “tumor growth of SK-N-AS xenografts (FIG. 14)” value in data set [5] (five weekly ITu HSV1716 1×10^7 pfu and/or MLN8237 10 mg/kg once daily 5-day cycles) is recorded as “reduced the growth”. For the same molecule, the “free input virus detected in MLN8237-treated tumours” value in data set [6] (2 hrs after ITu HSV1716) was “less of the free input virus detected”. For the same molecule, the “virus titre in MLN8237-treated compared to untreated control tumors” value in data set [6] (48 hrs after ITu HSV1716) is reported as “no apparent increase in virus titre”. Moreover, the “uptake/infection rate of HSV1716 (intracellular genomes, Q-PCR normalised to GAPDH)” value in data set [7] was “significantly increases intracellular HSV1716 genomes; also recorded: significantly higher uptake/infection rate”. The GI50 in [8] was ≥ 0.016 µM. Besides, the “cross-reactivity in broad screen of receptors and ion channels” value in [9] is reported as “no significant cross-reactivity”. Further, the “oral availability and absorption” value in data set [10] is “orally available and rapidly absorbed”. In addition, the “sections staining after incubation with X-gal (MLN8237-induced senescence)” value in data set [11] was 1/18.

The values are drawn from patent US20170071991A1, “Oncolytic Virus and Aurora Kinase Inhibitor for the Treatment of Cancer” (priority 2014, published 2017).
